How the values were obtained:
[1] = test system: A549 cells; experiment: in vitro wound-healing (scratch) assay; assay type: cell-based, human; settings: for migration in response to a scratch wound: 100 μM
Description: This Example evaluates the anti-metastatic properties of new migrastatin analogs by assessing their ability to inhibit in vitro cancer cell migration in a wound-healing assay and their chemotaxis in a transwell migration assay. […] Similar results were obtained with a panel of human lung cancer cell lines (H1975, H647, H522, H1703, data not shown).
For the results depicted in FIG. 3, A549 cancer cells were grown as nearly confluent monolayer culture and then starved overnight in medium containing 0.5% FCS. Cell monolayers were then scratched using pipette tip, photographed, and incubated with a 6 log-scaled concentration range of ME and CME from 10^−3 to 10^−8M, with or without 2% FCS. After 12 H, areas were fixed, stained and photographed using computer-assisted microscopy. Micrographs (4× magnification) are presented, showing the A549 cancer cell migration across the scratches in absence of serum (no migration), presence of serum (migration), and in the presence of serum plus CME or ME at 100 μM or 100 nM.
Wound-Healing Assay: Cancer cells migration was measured using an “in vitro wound-healing assay” (or scratch assay) performed in a 12-well plate (Becton Dickinson). Briefly, cancer cells were seeded at a density of 5-10×10^4 cells per well, grown to near confluent monolayers in 10% serum-supplemented M5 medium and then starved overnight in a low serum medium (0.5% FCS). Perpendicular wounds were scratched through the cell monolayer using a sterile 200 μL pipette tip. The cells were then washed twice very gently using PBS and the scratched areas were photographed at 4× and 20× magnification using computer-assisted microscopy. […] Each well was photographed at 4× and 20× magnification and the pictures analyzed with CellProfiler2.0 cell image analysis software as previously described, (Carpenter A E, Jones T R, Lamprecht M R, Clarke C, Kang I H et al. (2006), Genome Biology 7(10):R100). The migration in response to the test condition was calculated as cell coverage of the original cell-free zone and related to DMSO vehicle control.

[2] = test system: lung cancer (H299-GL, H522-GL, H647-GL, A549-GL, H1993, H1075-GL, H1373-GL H1703 cells); experiment: toxicity by alamarBlue, lung cancer cell lines; assay type: cell-based; settings: mean of 8 cell lines
Description: Dilutions of DMSO without compound were used as a control. After 18 hrs or 2 days, the cultures were pulsed with 6 μl of alamarBlue® (Invitrogen Inc. Grand Island, N.Y.) and incubated overnight. The alamarBlue® provides a cell growth indicator based on detection of metabolic activity. The assay system incorporates an oxidation-reduction indicator that both fluoresces and changes color in response to chemical reduction of growth medium resulting from cell growth. The fluorescence intensity was measured using a Synergy H1 Microplate Reader (Biotek Inc, Winooski, VT) and a dose-response curve established for IC50 determination.

[3] = test system: H1975; experiment: transwell migration (modified Boyden chamber, serum gradient); assay type: cell-based; settings: Homo sapiens, NCI-H1975, 12 hour migration, mean +/- SEM of three experiments, read-out: IC50, inhibition of transwell migration
Description: Migration assay: Cancer cell chemotaxis was performed towards a serum gradient in a modified Boyden chamber consisting of a cell culture insert (6.4 mm diameter, 8-μm pore polyethylene tetraphtalate membrane, [Becton Dickenson]) seated in each well of a 24-well companion plate (Becton Dickinson). Briefly, cancer cells were grown as subconfluent monolayer cultures then starved for 36 hours in serum-free M5 medium. After detachment and dissociation with 5 mM EDTA, single-cell suspensions were prepared by filtration through a 35 μm mesh cell strainer (Becton Dickinson). Cells were counted and a total of 10^5 cells suspended in serum-free medium were seeded into the upper chamber of an insert, then positioned in a 24-well plate, containing medium with or without 10% serum. […] For quantification, three randomly selected fields on the lower side of the insert were photographed at 4× and 20× magnification using computer-assisted microscopy, and analyzed with CellProfiler2.0 cell image analysis software). The migration in response to the test condition was calculated relative to the DMSO vehicle control. […]
Lung Cancer cell lines chemotaxis was performed in cell culture inserts after serum starvation and an overnight preincubation with an incremental logarithmic scale of drug concentration (ME and CME from 10^−3 to 10^−10M). […] Data are expressed as the mean+/−SEM of three independent experiments. […]

SMILES | migration in response to a scratch wound [1] | inhibition of migration ([1]; submicromolar concentrations) [%] | Estimated lethal doses (LD50) ([2]; 18 h exposure) [µM] | Estimated lethal doses (LD50) ([2]; 48 h exposure) [µM] | IC50 [3] [nM]
CO[C@H]1/C=C/CCCCCOC/C(C)=C\[C@@H](C)[C@@H]1OCC(=O)O [CME, Carboxymethyl migraether] | almost completely blocked | 32 | 553.9 | 697.9 | 510 ± 420
CO[C@H]1/C=C/CCCCCOC/C(C)=C\[C@@H](C)[C@@H]1O [ME, migrastatin ether] | almost completely blocked |  |  | 639.8 | 1510 ± 690
